According to patent publication US10093611B2, “Benzocycloalkenes as antifungal agents” (Bayer Intellectual Property GmbH, priority 2010, dated 2018):

What was measured:
[1] = tested on: Uromyces appendiculatus; assay: In vivo preventive test on Uromyces appendiculatus (beans); conditions: 100 ppm of active ingredient, evaluated 10 days after inoculation
Experimental: (§1) EXAMPLE I: IN VIVO PREVENTIVE TEST ON UROMYCES APPENDICULATUS (BEANS) Solvent: 24.5 parts by weight of acetone • 24.5 parts by weight of N,N-dimethylacetamide Emulsifier: 1 part by weight of alkylaryl polyglycol ether To produce a suitable preparation of active compound, 1 part by weight of active compound is mixed with the stated amounts of solvent and emulsifier, and the concentrate is diluted with water to the desired concentration. To test for preventive activity, young plants are sprayed with the preparation of active compound at the stated rate of application. After the spray coating has dried on, the plants are inoculated with an aqueous spore suspension of the causal agent of bean rust (Uromyces appendiculatus) and then remain for 1 day in an incubation cabinet at approximately 20° C. and a relative atmospheric humidity of 100%. The plants are then placed in a greenhouse at approximately 21° C. and a relative atmospheric humidity of approximately 90%. The test is evaluated 10 days after the inoculation. 0% means an efficacy which corresponds to that of the untreated control, while an efficacy of 100% means that no disease is observed. Under these conditions, excellent (at least 95%) to total protection is observed at a dose of 100 ppm of active ingredient with the following compounds from table I: […]

[2] = log P by HPLC on reversed-phase column (C 18), EEC Directive 79/831 Annex V.A8; type: physicochemical; conditions: C 18 reversed phase, 40° C., 0.1% aqueous formic acid and acetonitrile gradient
Experimental: In table 1, the log P values were determined in accordance with EEC Directive 79/831 Annex V.A8 by HPLC (High Performance Liquid Chromatography) on a reversed-phase column (C 18), using the method described below: Temperature: 40° C.; Mobile phases: 0.1% aqueous formic acid and acetonitrile; linear gradient from 10% acetonitrile to 90% acetonitrile. Calibration was carried out using unbranched alkan-2-ones (comprising 3 to 16 carbon atoms) with known log P values (determination of the log P values by the retention times using linear interpolation between two successive alkanones). lambda-max-values were determined using UV-spectra from 200 nm to 400 nm and the peak values of the chromatographic signals.

[3] = tested on: Sphaerotheca fuliginea; assay: In vivo preventive test on Sphaerotheca fuliginea (cucumbers); conditions: 100 ppm of active ingredient, evaluated 7 days after inoculation
Experimental: EXAMPLE H: IN VIVO PREVENTIVE TEST ON SPHAEROTHECA FULIGINEA (CUCUMBERS) Solvent: 24.5 parts by weight of acetone • 24.5 parts by weight of N,N-dimethylacetamide Emulsifier: 1 part by weight of alkylaryl polyglycol ether To produce a suitable preparation of active compound, 1 part by weight of active compound is mixed with the stated amounts of solvent and emulsifier, and the concentrate is diluted with water to the desired concentration. To test for protect activity, young plants are sprayed with the preparation of active compound at the stated rate of application. After the spray coating has dried on, the plants are inoculated with an aqueous spore suspension of Sphaerotheca fuliginea. The plants are then placed in a greenhouse at approximately 23° C. and a relative atmospheric humidity of approximately 70%. The test is evaluated 7 days after the inoculation. 0% means an efficacy which corresponds to that of the untreated control, while an efficacy of 100% means that no disease is observed. Under these conditions, high (at least 90%) to total protection is observed at a dose of 100 ppm of active ingredient with the following compounds from table H: Under the same conditions, high protection (greater than 80%) is observed at a dose of 500 ppm of active ingredient with compound 7, whereas poor protection (less than 20%) is observed with the isosteric analogue compound CMP2 claimed in WO-2009/016218 as in table H2.

[4] = tested on: Fusarium nivale (var. majus); assay: In vivo curative test on Fusarium nivale (var. majus) (wheat); conditions: 500 ppm of active ingredient, evaluated 5 days after inoculation
Experimental: EXAMPLE C: IN VIVO CURATIVE TEST ON FUSARIUM NIVALE (VAR. MAJUS) (WHEAT) Solvent: 49 parts by weight of N,N-dimethylacetamide Emulsifier: 1 part by weight of alkylaryl polyglycol ether To produce a suitable preparation of active compound, 1 part by weight of active compound or active compound combination is mixed with the stated amounts of solvent and emulsifier, and the concentrate is diluted with water to the desired concentration. To test for curative activity, young plants are slightly injured by using a sandblast and afterwards they are sprayed with a conidia suspension of Fusarium nivale (var. majus) and placed for 24 hours in a greenhouse under a translucent incubation cabinet at a temperature of approximately 10° C. and a relative atmospheric humidity of approximately 100% and are subsequently sprayed with the preparation of active compound at the stated rate of application. After the spray coating has been dried, the plants remain in the greenhouse under translucent incubation cloches at a temperature of approximately 10° C. and a relative atmospheric humidity of approximately 100%. The test is evaluated 5 days after the inoculation. 0% means an efficacy which corresponds to that of the untreated control, while an efficacy of 100% means that no disease is observed. Under these conditions, total protection is observed at a dose of 500 ppm of active ingredient with the following compounds from table C: […]

[5] = tested on: Venturia inaequalis; assay: In vivo preventive test on Venturia inaequalis (apples); conditions: 100 ppm of active ingredient, evaluated 10 days after inoculation
Experimental: as §1, with “J:” for “I:”, “VENTURIA INAEQUALIS (APPLES)” for “UROMYCES APPENDICULATUS (BEANS)”, “conidia” for “spore”, “apple scab (Venturia inaequalis)” for “bean rust (Uromyces appendiculatus)”, “conditions,” for “conditions, excellent (at least 95%) to”

logP [2]	chromatographic logP ([2]; reversed-phase HPLC column (C 18))	SMILES	Efficacy [1]	Efficacy [3]	Efficacy [4]	Efficacy [5]
4.41	–	CCC(C1CCc2ccccc2C1)N(C(=O)c1c(C(F)F)nn(C)c1F)C1CC1 (stereo not shown) [Example 17]	–	–	100%	–
3.67	–	CCc1nn(C)c(F)c1C(=O)N(C1CC1)C(C)C1Cc2ccccc2C1 (stereo not shown) [Example 12]	100%	95%	100%	100%
3.33	–	CC(C1Cc2ccccc2C1)N(C(=O)c1cn(C)nc1C(F)F)C1CC1 (stereo not shown) [Example 13]	98%	95%	100%	100%

The remaining lines, values behind:

SMILES	logP [2]	chromatographic logP ([2]; reversed-phase HPLC column (C 18))	Efficacy [1]	Efficacy [3]	Efficacy [4]	Efficacy [5]
Cc1nn(C)c(F)c1C(=O)N(C1CC1)C(C)C1Cc2ccccc2C1 (stereo not shown) [Example 11]	3.25	–	100%	92%	100%	100%
CC(C1CCc2ccccc2C1)N(C(=O)c1c(C(F)F)nn(C)c1F)C1CC1 (stereo not shown) [Example 16]	3.99	–	–	100%	100%	100%
CC(C1Cc2ccccc2C1)N(C(=O)c1c(C(F)F)nn(C)c1F)C1CC1 (stereo not shown) [Example 14, N-cyclopropyl-3-(difluoromethyl)-N-[1-(indan-2-yl)ethyl]-5-fluoro-1-methyl-1H-pyrazole-4-carboxamide]	–	3.76	–	100%	100%	100%
